Data taken from US20220062240A1, “METHODS OF TREATING CANCER USING A CLK INHIBITOR” (BioSplice Therapeutics, Inc., priority 2018, published 2022).
pEC50: −log10 of the molar value. Read-outs that look alike come from different tables or passages of the source.

Key:
Type in all cases: cell-based
[1] = system: BT-549; assay: CellTiter-Glo Viability Assay, breast cancer; settings: Homo sapiens, 96 h; BT-549, breast cancer, four days; read-out: EC50
[2] = system: MDA-MB-231-Luc; assay: CellTiter-Glo Viability Assay, breast cancer; settings: Homo sapiens, 96 h; MDA-MB-231-Luc, breast cancer, four days; read-out: EC50
[3] = system: MCF7; assay: CellTiter-Glo Viability Assay, breast cancer; settings: Homo sapiens, 96 h; MCF7, breast cancer, four days; read-out: EC50
[4] = system: ZR-75-1; assay: CellTiter-Glo Viability Assay, breast cancer; settings: Homo sapiens, 96 h; ZR-75-1, breast cancer, four days; read-out: EC50
[5] = system: T47D; assay: CellTiter-Glo Viability Assay, breast cancer; settings: Homo sapiens, 96 h, breast cancer, four days, read-out: EC50
[6] = system: DU4475; assay: CellTiter-Glo Viability Assay, breast cancer; settings: Homo sapiens, DU-4475, 96 h; DU4475, breast cancer, four days; read-out: EC50
[7] = system: HCC1599; assay: CellTiter-Glo Viability Assay, breast cancer; settings: Homo sapiens, 96 h; HCC1599, breast cancer, four days; read-out: EC50
[8] = system: CAMA1; assay: CellTiter-Glo Viability Assay, breast cancer; settings: Homo sapiens, CAMA-1, 96 h; CAMA1, breast cancer, four days; read-out: EC50
[9] = system: prostate cancer (5 cell lines); assay: CellTiter-Glo Viability Assay, prostate cancer; settings: Homo sapiens
[10] = system: colorectal cancer (6 cell lines); assay: CellTiter-Glo Viability Assay, colorectal cancer; settings: Homo sapiens, inhibition of cancer cell proliferation
[11] = system: haematopoietic & lymphoid tumors (13 cell lines); assay: CellTiter-Glo Viability Assay, haematopoietic & lymphoid tumors; settings: Homo sapiens, inhibition of cancer cell proliferation
[12] = system: lung cancer (4 cell lines); assay: CellTiter-Glo Viability Assay, lung cancer; settings: Homo sapiens, inhibition of cancer cell proliferation
[13] = system: liver cancer (3 cell lines); assay: CellTiter-Glo Viability Assay, liver cancer; settings: Homo sapiens, inhibition of cancer cell proliferation
[14] = system: ovarian cancer (4 cell lines); assay: CellTiter-Glo Viability Assay, ovarian cancer; settings: Homo sapiens, inhibition of cancer cell proliferation
[15] = system: pancreatic cancer (8 cell lines); assay: CellTiter-Glo Viability Assay, pancreatic cancer; settings: Homo sapiens, inhibition of cancer cell proliferation
[16] = system: all 50 cell lines; assay: CellTiter-Glo Viability Assay, average across all cell lines; settings: Homo sapiens; across all 50 cell lines; read-out: average EC50 for inhibition of cancer cell proliferation
Outline: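 Proliferation of a multi-tissue human cancer line panel is assessed over four days at 37° C and 5% CO2, seeding 300-3,000 cells/well. Viability is quantified by CellTiter-Glo luminescence, and EC50 values are calculated.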

[17] = DU-145, read-out: Prostate cancer EC50 Du-145
[18] = PC-3, PC3 cell line, inhibition of cancer cell proliferation, read-out: Prostate cancer EC50 PC3
[19] = 22Rv1 cell line, inhibition of cancer cell proliferation, read-out: Prostate cancer EC50 22Rv1
[20] = LNCap clone FGC cell line, inhibition of cancer cell proliferation, read-out: Prostate cancer EC50 LNCap clone FGC
[21] = VCaP (Sigma) cell line, inhibition of cancer cell proliferation, read-out: Prostate cancer EC50 VCaP (Sigma)
[22] = HCT-116, HCT116 cell line, read-out: Colorectal cancer, EC50 (μM) HCT116
[23] = HT-29, HT29 cell line, read-out: Colorectal cancer, EC50 (μM) HT29
[24] = SW-620, SW620 cell line, read-out: Colorectal cancer, EC50 (μM) SW620
[25] = DLD-1 cell line, read-out: Colorectal cancer, EC50 (μM) DLD-1
[26] = SW48 cell line, read-out: Colorectal cancer, EC50 (μM) SW48
[27] = SW480 cell line, read-out: Colorectal cancer, EC50 (μM) SW480
[28] = DND41, DND-41 cell line, read-out: Haematopoietic & Lymphoid tumors, EC50 (μM) DND-41
[29] = MV4-11, MV-4-11 cell line, read-out: Haematopoietic & Lymphoid tumors, EC50 (μM) MV-4-11
[30] = Rec1, REC-1 cell line, read-out: Haematopoietic & Lymphoid tumors, EC50 (μM) REC-1
[31] = SU-DHL-4, SUDHL4 cell line, read-out: Haematopoietic & Lymphoid tumors, EC50 (μM) SUDHL4
[32] = HL-60 cell line, read-out: Haematopoietic & Lymphoid tumors, EC50 (μM) HL-60
[33] = JM1 cell line, read-out: Haematopoietic & Lymphoid tumors, EC50 (μM) JM1
[34] = JURKAT, Clone E6-1 cell line, read-out: Haematopoietic & Lymphoid tumors, EC50 (μM) JURKAT, Clone E6-1
[35] = JeKo-1 cell line, read-out: Haematopoietic & Lymphoid tumors, EC50 (μM) JeKo-1
[36] = KASUMI-1 cell line, read-out: Haematopoietic & Lymphoid tumors, EC50 (μM) KASUMI-1
[37] = Loucy cell line, read-out: Haematopoietic & Lymphoid tumors, EC50 (μM) Loucy
[38] = MOLT-4 cell line, read-out: Haematopoietic & Lymphoid tumors, EC50 (μM) MOLT-4
[39] = TF-1 cell line, read-out: Haematopoietic & Lymphoid tumors, EC50 (μM) TF-1
[40] = TOLEDO cell line, read-out: Haematopoietic & Lymphoid tumors, EC50 (μM) TOLEDO
[41] = A-427, A427 cell line, read-out: Lung cancer, EC50 (μM) A427
[42] = HCC78, HCC-78 cell line, read-out: Lung cancer, EC50 (μM) HCC-78
[43] = NCI-H460 cell line, read-out: Lung cancer, EC50 (μM) NCI-H460
[44] = NCI-H522 cell line, read-out: Lung cancer, EC50 (μM) NCI-H522
[45] = SNU-398, SNU398 cell line, read-out: Liver cancer, EC50 SNU398
[46] = HEPG2 cell line, read-out: Liver cancer, EC50 HEPG2
[47] = PLC/PRF/5 cell line, read-out: Liver cancer, EC50 PLC/PRF/5
[48] = PA-1, PA1 cell line, read-out: Ovarian cancer, EC50 (μM) PA1
[49] = TOV112D, TOV-112D cell line, read-out: Ovarian cancer, EC50 (μM) TOV-112D
[50] = OV-90 cell line, read-out: Ovarian cancer, EC50 (μM) OV-90
[51] = OVCAR-3 cell line, read-out: Ovarian cancer, EC50 (μM) OVCAR-3
[52] = BXPC-3, BxPC3 cell line, read-out: Pancreatic cancer, EC50 BxPC3
[53] = CAPAN-1, Capan1 cell line, read-out: Pancreatic cancer, EC50 Capan1
[54] = Capan-2, Capan2 cell line, read-out: Pancreatic cancer, EC50 Capan2
[55] = MIA PaCa-2 cell line, read-out: Pancreatic cancer, EC50 MIA PaCa-2
[56] = PANC 05.04 cell line, read-out: Pancreatic cancer, EC50 PANC 05.04
[57] = PANC-1 cell line, read-out: Pancreatic cancer, EC50 PANC-1
[58] = UPAFII cell line, read-out: Pancreatic cancer, EC50 UPAFII

Q: How did the pEC50 [1] turn out when `Cc1ncc(C(=O)Nc2cc3nc(-c4cnc(C)n4C)ccc3cn2)s1` [Compound 82] was run?
A: Its pEC50 is 6.56.

Q: What about the pEC50 [2] of the same molecule?
A: Its pEC50 is 6.34.

Q: What about the pEC50 [3] of the same molecule?
A: The pEC50 was 6.03.

Q: And the pEC50 [4]?
A: Its pEC50 is 6.36.

Q: What about the pEC50 [5] of the same molecule?
A: The pEC50 was 6.35.

Q: And the pEC50 [6]?
A: The pEC50 was 6.83.

Q: And the pEC50 [7]?
A: The pEC50 was 6.81.

Q: What about the pEC50 [8] of the same molecule?
A: Its pEC50 is 6.61.

Q: And the pEC50 [9, 17]?
A: The pEC50 was 6.44.

Q: And the pEC50 [9, 18]?
A: Its pEC50 is 6.54.

Q: What about the pEC50 [9, 19] of the same molecule?
A: Its pEC50 is 6.66.

Q: And the pEC50 [9, 20]?
A: Its pEC50 is 6.53.

Q: And the pEC50 [9, 21]?
A: Its pEC50 is 6.11.

Q: And the EC50 [10, 22]?
A: The EC50 was 0.168 µM.

Q: What about the EC50 [10, 23] of the same molecule?
A: Its EC50 is 0.252 µM.

Q: What about the EC50 [10, 24] of the same molecule?
A: The EC50 was 0.143 µM.

Q: And the EC50 [10, 25]?
A: Its EC50 is 0.193 µM.

Q: What about the EC50 [10, 26] of the same molecule?
A: The EC50 was 0.122 µM.

Q: And the EC50 [10, 27]?
A: Its EC50 is 0.339 µM.

Q: What about the EC50 [11, 28] of the same molecule?
A: The EC50 was 0.288 µM.

Q: And the EC50 [11, 29]?
A: The EC50 was 0.081 µM.

Q: And the EC50 [11, 30]?
A: The EC50 was 0.103 µM.

Q: And the EC50 [11, 31]?
A: Its EC50 is 0.292 µM.

Q: What about the EC50 [11, 32] of the same molecule?
A: The EC50 was 0.221 µM.

Q: And the EC50 [11, 33]?
A: Its EC50 is 0.137 µM.

Q: And the EC50 [11, 34]?
A: Its EC50 is 0.169 µM.

Q: And the EC50 [11, 35]?
A: The EC50 was 0.125 µM.

Q: And the EC50 [11, 36]?
A: The EC50 was 0.163 µM.

Q: And the EC50 [11, 37]?
A: The EC50 was 0.206 µM.

Q: And the EC50 [11, 38]?
A: Its EC50 is 0.233 µM.

Q: And the EC50 [11, 39]?
A: The EC50 was 0.316 µM.

Q: And the EC50 [11, 40]?
A: Its EC50 is 0.117 µM.

Q: And the EC50 [12, 41]?
A: The EC50 was 0.236 µM.

Q: What about the EC50 [12, 42] of the same molecule?
A: The EC50 was 0.308 µM.

Q: And the EC50 [12, 43]?
A: The EC50 was 0.257 µM.

Q: And the EC50 [12, 44]?
A: Its EC50 is 0.19 µM.

Q: What about the pEC50 [13, 45] of the same molecule?
A: The pEC50 was 6.91.

Q: And the pEC50 [13, 46]?
A: The pEC50 was 6.31.

Q: And the pEC50 [13, 47]?
A: Its pEC50 is 6.21.

Q: And the EC50 [14, 48]?
A: Its EC50 is 0.175 µM.

Q: What about the EC50 [14, 49] of the same molecule?
A: Its EC50 is 0.147 µM.

Q: What about the EC50 [14, 50] of the same molecule?
A: The EC50 was 0.628 µM.

Q: And the EC50 [14, 51]?
A: The EC50 was 0.073 µM.

Q: And the pEC50 [15, 52]?
A: The pEC50 was 6.70.

Q: And the pEC50 [15, 53]?
A: Its pEC50 is 6.57.

Q: What about the pEC50 [15, 54] of the same molecule?
A: Its pEC50 is 6.24.

Q: And the pEC50 [15, 55]?
A: Its pEC50 is 6.80.

Q: And the pEC50 [15, 56]?
A: Its pEC50 is 6.55.

Q: And the pEC50 [15, 57]?
A: Its pEC50 is 6.29.

Q: And the pEC50 [15, 58]?
A: Its pEC50 is 6.77.

Q: And the pEC50 [16]?
A: Its pEC50 is 6.55.

Q: What does the source list for `O=C(Nc1ccc(OCCN2CCCC2)cc1)c1n[nH]cc1/C=C/c1cccnc1` [Compound 92]?
A: pEC50 [1]: 5.26; pEC50 [2]: < 5.00; pEC50 [3]: < 5.00; pEC50 [4]: < 5.00; pEC50 [5]: 6.06; pEC50 [6]: 5.22; pEC50 [7]: 6.51; pEC50 [8]: 5.06; pEC50 [9, 17]: < 5.00; pEC50 [9, 18]: < 5.00; pEC50 [9, 19]: 6.06; pEC50 [9, 20]: 5.04; pEC50 [9, 21]: 5.25; EC50 [10, 22]: 6.22 µM; EC50 [10, 23]: > 10 µM; EC50 [10, 24]: 5.35 µM; EC50 [10, 25]: 2.53 µM; EC50 [10, 26]: 1.87 µM; EC50 [10, 27]: > 10 µM; EC50 [11, 28]: > 10 µM; EC50 [11, 29]: 0.675 µM; EC50 [11, 30]: 2.25 µM; EC50 [11, 31]: 4.87 µM; EC50 [11, 32]: 7.97 µM; EC50 [11, 33]: 3.24 µM; EC50 [11, 34]: 3.81 µM; EC50 [11, 35]: 2.18 µM; EC50 [11, 36]: 1.63 µM; EC50 [11, 37]: 3.96 µM; EC50 [11, 38]: 6.76 µM; EC50 [11, 39]: 6.97 µM; EC50 [11, 40]: 2.51 µM; EC50 [12, 41]: 8.56 µM; EC50 [12, 42]: > 10 µM; EC50 [12, 43]: > 10 µM; EC50 [12, 44]: 7.15 µM; pEC50 [13, 45]: 5.31; pEC50 [13, 46]: < 5.00; pEC50 [13, 47]: < 5.00; EC50 [14, 48]: 9.92 µM; EC50 [14, 49]: 7.05 µM; EC50 [14, 50]: > 10 µM; EC50 [14, 51]: 8.42 µM; pEC50 [15, 52]: < 5.00; pEC50 [15, 53]: < 5.00; pEC50 [15, 54]: < 5.00; pEC50 [15, 55]: 5.23; pEC50 [15, 56]: < 5.00; pEC50 [15, 57]: < 5.00; pEC50 [15, 58]: < 5.00; pEC50 [16]: 5.17
